Literature values as cited in PMC7859440, “Transporter Gene Regulation in Sandwich Cultured Human Hepatocytes Through the Activation of Constitutive Androstane Receptor (CAR) or Aryl Hydrocarbon Receptor (AhR)” (Frontiers in Pharmacology, 2021).

Tested on: SLC51B
Parameters: method as in Niu et al., 2019
Details: rifampin (PXR ligand), human and monkey hepatocytes; ref Niu et al., 2019; cited from earlier work

Which SLC51B induction does the source give for `CO[C@H]1/C=C/O[C@@]2(C)Oc3c(C)c(O)c4c(O)c(c(/C=N/N5CCN(C)CC5)c(O)c4c3C2=O)NC(=O)/C(C)=C\C=C\[C@H](C)[C@H](O)[C@@H](C)[C@@H](O)[C@@H](C)[C@H](OC(C)=O)[C@@H]1C` [rifampin] here?
The SLC51B induction was “greater than 10 fold”.
